Several values for one entry are separate records, joined by “and”; a condition that tells them apart may be missing. Equal entries are not always repeated.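 Briefly, cells in 96-well plates were exposed to five compound concentrations for 48 h, and endpoints were estimated by linear interpolation. The concentration for 50% growth inhibition is given as GI50. TGI marks complete inhibition of growth.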
Legend:
Experiment in all cases: NCI anticancer screen, dose series, 48 h
SK-MEL-2 melanoma = tested on: SK-MEL-2 melanoma
EKVX NSCLC = tested on: EKVX NSCLC
COLO 205 colon = tested on: COLO 205 colon
HL-60(TB) leukemia = tested on: HL-60(TB) leukemia
786-0 renal = tested on: 786-0 renal
SF-539 CNS = tested on: SF-539 CNS
SN12C renal = tested on: SN12C renal
HCT-15 colon = tested on: HCT-15 colon
OVCAR-5 ovarian = tested on: OVCAR-5 ovarian
MALME-3M melanoma = tested on: MALME-3M melanoma

SMILES	TGI (SK-MEL-2 melanoma)	TGI (EKVX NSCLC)	TGI (COLO 205 colon)	TGI (HL-60(TB) leukemia)	TGI (786-0 renal)	TGI (SF-539 CNS)	TGI (SN12C renal)	TGI (HCT-15 colon)	TGI (OVCAR-5 ovarian)	TGI (MALME-3M melanoma)	GI50 (SK-MEL-2 melanoma)	GI50 (EKVX NSCLC)	GI50 (COLO 205 colon)	GI50 (HL-60(TB) leukemia)	GI50 (786-0 renal)	GI50 (SF-539 CNS)	GI50 (SN12C renal)	GI50 (HCT-15 colon)	GI50 (OVCAR-5 ovarian)	GI50 (MALME-3M melanoma)
C#CCSc1n[nH]c(-c2ccco2)n1	> 100 µM	> 100 µM	> 100 µM	> 100 µM	> 100 µM	> 100 µM	> 100 µM	> 100 µM	> 100 µM	> 100 µM										
CCCOc1ccc(-c2nc(-c3ccc(N=Cc4ccc(N(CCOS(C)(=O)=O)CCOS(C)(=O)=O)cc4C)cc3)cs2)cc1	50.9 µM	56.9 µM	14.9 µM	54 µM	26.5 µM	48.8 µM	> 92.6 µM	> 72.2 µM	> 71.7 µM	> 95.6 µM										
O=C(N/N=C/c1ccccc1O)C(O)(c1ccccc1)c1ccccc1	> 100 µM	> 100 µM	> 100 µM	> 100 µM	> 100 µM	> 100 µM	> 100 µM	> 100 µM	> 100 µM	> 100 µM	53100 nM	3.6 µM	3430 nM	2880 nM	> 100000 nM	> 100000 nM	> 100000 nM	3540 nM	> 100000 nM	> 100 µM
C[C@H](N)C(=O)N[C@@H]1[C@H]2C(=C(O)C[C@@H](O)[C@@H]2O)C(=O)O[C@]1(C)C(Cl)Cl	1.49 µM and 0.958 µM	4.66 µM and 2.23 µM	0.212 µM and 0.37 µM		10.9 µM and 1.8 µM	2.37 µM and 0.88 µM	1.23 µM and 1.67 µM	10.1 µM and 5.57 µM	7.44 µM and 3.44 µM	1.64 µM and 1.33 µM	308 nM	0.472 µM	130 nM	254 nM and 149 nM	246 nM	326 nM	212 nM	894 nM		
COc1cc(Br)c(CC2(C#N)c3ccccc3C3C(N2C(=O)c2ccccc2)C3(Cl)Cl)cc1OC (configuration not stated)	> 65.5 µM	> 65.5 µM	> 65.5 µM	30.2 µM	> 65.5 µM	> 65.5 µM	> 65.5 µM	> 65.5 µM	> 65.5 µM	> 65.5 µM										
CN1CCC(CNc2ccc3ncc(-c4cccc(OC(F)(F)F)c4)n3n2)CC1	3.25 µM and 4.34 µM	14.5 µM and > 10 µM	3.07 µM and 3.08 µM	3.79 µM and 2.89 µM	3.45 µM and 4.06 µM	3.47 µM and 3.11 µM	7.14 µM and > 10 µM	4.78 µM and > 10 µM	8.32 µM and > 10 µM	3.25 µM and 3.23 µM	1640 nM and 1760 nM	3.45 µM and 9.78 µM	1590 nM and 1470 nM	1540 nM and 1000 nM	1780 nM and 1690 nM	1680 nM and 1510 nM	2140 nM and 2300 nM	2000 nM and 2450 nM	2680 nM and 2950 nM	1.64 µM and 1.65 µM
O=C1/C=C/[C@@H](O)[C@@H]2C[C@@H](O)C[C@H]2/C=C/CCC[C@H](CCc2ccc(C(F)(F)F)cc2)O1	1.41 µM	6.67 µM	0.319 µM	2.74 µM	0.378 µM	> 100 µM	> 36.5 µM	2.36 µM	> 100 µM	2.88 µM	349 nM	0.252 µM	175 nM	346 nM	82.6 nM	522 nM	329 nM	340 nM	505 nM	0.364 µM
CC1=C(C(=O)Nc2ccccc2C)C(c2ccc(C3C(C(=O)Nc4ccccc4C)=C(C)NC(C)=C3C(=O)Nc3ccccc3C)cc2)C(C(=O)Nc2ccccc2C)=C(C)N1	31.6 µM	19.2 µM	14.5 µM	6.15 µM	17.3 µM	8.57 µM	2.85 µM	23.5 µM	31.8 µM	6.13 µM										
CCN1C(=O)N(CC)C2C1NN=c1s/c(=C\c3ccccc3F)c(=O)n12 (configuration not stated)	> 38.9 µM	> 100 µM	0.0737 µM	0.0607 µM	52.8 µM	0.0696 µM	> 100 µM	> 100 µM	> 100 µM	> 100 µM	48.9 nM	0.0481 µM	27.1 nM	23.9 nM	61 nM	23.6 nM	52.2 nM	31.6 nM	62.8 nM	15.4 µM
Cc1ncc(C(=O)Nc2ccc(CN3CCN(C)CC3)c(C(F)(F)F)c2)cc1C#Cc1cnc(N)c2cnccc12	0.0941 µM	12.9 µM	3.74 µM	1.03 µM	11 µM	1.29 µM	11.5 µM	4.41 µM	10.6 µM	0.042 µM	24.3 nM	0.358 µM	27.6 nM	38.3 nM	225 nM	193 nM	37 nM	389 nM	76 nM	< 0.0113 µM
O=C(CCCCCCCn1cc(-c2cccnc2)nn1)Nc1ccccc1-c1ccccc1	38.1 µM	> 100 µM	49.7 µM	29.1 µM	> 100 µM	> 78.8 µM	> 100 µM	> 100 µM	> 100 µM	41.8 µM	5520 nM	10.5 µM	1920 nM	4740 nM	4130 nM	52.2 nM	47.5 nM	231 nM	422 nM	5.71 µM
Cc1cccc(-c2nn3c(c2-c2ccnc4ccc(C(N)=O)cc24)CCC3)n1	> 100 µM	> 100 µM	> 100 µM	> 100 µM	> 100 µM	> 100 µM	> 100 µM	> 100 µM	> 100 µM	> 100 µM	> 100000 nM	> 100 µM	> 100000 nM	> 100000 nM	> 100000 nM	> 100000 nM	> 100000 nM	> 100000 nM	> 100000 nM	57.2 µM
COc1ccccc1-c1cc(/C=C2\C(=O)Nc3ncc(Br)cc32)cc(Br)c1O	> 25 µM	> 25 µM	> 25 µM	23.7 µM	> 25 µM	> 25 µM	> 25 µM	> 25 µM	> 25 µM	> 25 µM	8890 nM	11.2 µM	20200 nM	7470 nM	12200 nM	> 19300 nM	12100 nM	9600 nM	> 25000 nM	16.4 µM
Sc1ccc2ccccc2c1CNCc1ccccc1	45.5 µM	78.3 µM	28.2 µM	26.9 µM	37 µM	29.3 µM	25.7 µM	88.6 µM	34 µM	78.5 µM										

Source: PubChem BioAssay (NCI)
